The values that follow come from article doi:10.1101/2023.12.19.572336, “Structure of an insect gustatory receptor” (bioRxiv, 2023).

In this assay the target is T1, Bombyx mori Gr9 (BmGr9) (Bombyx mori, UniProt B3GTD7).
T1 construct: N-terminally TwinStrep-tagged BmGr9, homotetramer; residues 232–269 and the N and C termini (15 and 5 residues) disordered
T1 sequence (B3GTD7 1-449): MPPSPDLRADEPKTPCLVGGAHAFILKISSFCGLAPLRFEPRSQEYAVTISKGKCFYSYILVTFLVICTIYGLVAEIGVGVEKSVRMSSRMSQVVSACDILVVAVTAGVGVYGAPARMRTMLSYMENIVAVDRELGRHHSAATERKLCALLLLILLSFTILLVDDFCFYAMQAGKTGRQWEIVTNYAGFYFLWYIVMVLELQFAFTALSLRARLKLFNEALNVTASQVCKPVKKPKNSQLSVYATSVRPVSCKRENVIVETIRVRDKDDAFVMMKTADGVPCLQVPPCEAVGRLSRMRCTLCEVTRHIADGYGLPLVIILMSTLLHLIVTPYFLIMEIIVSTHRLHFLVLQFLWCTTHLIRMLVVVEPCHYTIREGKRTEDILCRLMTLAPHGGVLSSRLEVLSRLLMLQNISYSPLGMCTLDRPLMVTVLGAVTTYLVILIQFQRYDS
Put plainly: cryo-EM of protein purified with […] D-fructose ([…] Å); EC50 by two-electrode voltage clamp in Xenopus oocytes. It counts as cell-based. A general note: In two-electrode clamp one electrode senses voltage and the other passes current.

One may read the EC50 as the concentration at which the effect is half-maximal. A higher EC50 goes with lower potency in that assay. With `OCC1(O)OC[C@@H](O)[C@@H](O)[C@@H]1O` (stereo partly drawn) [D-fructose], the EC50 stood at 22 mM.
